Reference: PubChem BioAssay (NCI)
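96-well plates; 48 h exposure; 5 concentrations. Endpoints by linear interpolation between flanking doses. Not reached: highest tested concentration assigned. At the GI50, growth is halved. Definition used: TGI = concentration required for complete inhibition of growth.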

Legend:
Assay in all cases: DTP human tumour cell line panel, 48 h
[1] = system: KM12 colon
[2] = system: HS 578T breast
[3] = system: T-47D breast
[4] = system: RPMI-8226 leukemia
[5] = system: SK-MEL-5 melanoma
[6] = system: MOLT-4 leukemia
[7] = system: COLO 205 colon
[8] = system: SF-539 CNS
[9] = system: 786-0 renal
[10] = system: OVCAR-8 ovarian
[11] = system: NCI-H460 lung
[12] = system: HL-60(TB) leukemia
[13] = system: OVCAR-4 ovarian
[14] = system: IGROV1 ovarian
[15] = system: SF-295 CNS
[16] = system: NCI/ADR-RES ovarian
[17] = system: RXF 393 renal
[18] = system: HCT-15 colon
[19] = system: EKVX NSCLC
[20] = system: SF-268 CNS
[21] = system: M14 melanoma
[22] = system: DU-145 prostate
[23] = system: HCC-2998 colon
[24] = system: SN12C renal
[25] = system: SK-OV-3 ovarian
[26] = system: HOP-92 NSCLC
[27] = system: NCI-H522 lung
[28] = system: MCF7 breast
[29] = system: UACC-62 melanoma
[30] = system: U251 CNS
[31] = system: A498 renal
[32] = system: HCT-116 colon
[33] = system: PC-3 prostate
[34] = system: CAKI-1 renal
[35] = system: UO-31 renal
[36] = system: SK-MEL-2 melanoma
[37] = system: SNB-75 CNS
[38] = system: MDA-MB-435
[39] = system: ACHN renal
[40] = system: K-562 leukemia
[41] = system: TK-10 renal
[42] = system: CCRF-CEM leukemia
[43] = system: HT29 colon
[44] = system: NCI-H23 lung
[45] = system: SK-MEL-28 melanoma
[46] = system: A549 NSCLC
[47] = system: MALME-3M melanoma
[48] = system: LOX IMVI melanoma
[49] = system: OVCAR-5 ovarian
[50] = system: MDA-MB-231 breast
[51] = system: NCI-H226 lung
[52] = system: SNB-19 CNS
[53] = system: SR leukemia
[54] = system: OVCAR-3 ovarian
[55] = system: UACC-257 melanoma
[56] = system: BT-549 breast
[57] = system: SW-620 colon
[58] = system: HOP-62 NSCLC

With O=Nc1c(-c2c(O)[nH]c3cc(Br)ccc23)[nH]c2ccccc12 the GI50 [1] was 0.471 µM, the TGI [1] was 1.94 µM and the GI50 [2] was 0.239 µM. For the same molecule, the TGI [2] was 7.14 µM, the GI50 [3] was 1.98 µM and the TGI [3] was 5.48 µM. For the same molecule, the GI50 [4] was 2.04 µM, the TGI [4] was > 22.5 µM and the GI50 [5] was 0.723 µM. For the same molecule, the TGI [5] was 1.99 µM, the GI50 [6] was 2.99 µM and the TGI [6] was > 100 µM. The GI50 [7] was 1.35 µM, the TGI [7] was 2.84 µM and the GI50 [8] was 0.734 µM. For the same molecule, the TGI [8] was 2.88 µM, the GI50 [9] was 1.22 µM and the TGI [9] was 4.4 µM. The GI50 [10] was 2.32 µM, the TGI [10] was > 100 µM and the GI50 [11] was 1.29 µM. For the same molecule, the TGI [11] was 7.57 µM, the GI50 [12] was 2.75 µM and the TGI [12] was > 32.3 µM. For the same molecule, the GI50 [13] was 1.23 µM, the TGI [13] was 5.37 µM and the GI50 [14] was 0.14 µM. The TGI [14] was 2.1 µM, the GI50 [15] was 1.34 µM and the TGI [15] was 5.57 µM. It also gave a GI50 [16] of 1.42 µM, a TGI [16] of 4.48 µM and a GI50 [17] of 0.858 µM. It also gave a TGI [17] of 3.42 µM, a GI50 [18] of 0.963 µM and a TGI [18] of 3.1 µM. The GI50 [19] was 1.3 µM, the TGI [19] was 3.22 µM and the GI50 [20] was 1.52 µM. It also gave a TGI [20] of 3.66 µM, a GI50 [21] of 1.76 µM and a TGI [21] of 3.48 µM. The GI50 [22] was 1.23 µM, the TGI [22] was 2.56 µM and the GI50 [23] was 1.6 µM. The TGI [23] was 3.08 µM, the GI50 [24] was 0.785 µM and the TGI [24] was 3.86 µM. For the same molecule, the GI50 [25] was 0.223 µM, the TGI [25] was 2.94 µM and the GI50 [26] was 1.97 µM. The TGI [26] was 7.29 µM, the GI50 [27] was 1.1 µM and the TGI [27] was 4.54 µM. For the same molecule, the GI50 [28] was 1.83 µM, the TGI [28] was 7.79 µM and the GI50 [29] was 1.29 µM. For the same molecule, the TGI [29] was 2.95 µM, the GI50 [30] was 1.87 µM and the TGI [30] was 8.52 µM. It also gave a GI50 [31] of 0.416 µM, a TGI [31] of 1.83 µM and a GI50 [32] of 0.883 µM. It also gave a TGI [32] of 2.27 µM, a GI50 [33] of 1.2 µM and a GI50 [34] of 0.109 µM. It also gave a TGI [34] of 1.45 µM, a GI50 [35] of 0.334 µM and a TGI [35] of 2.03 µM. It also gave a GI50 [36] of 1.11 µM, a TGI [36] of 3.41 µM and a GI50 [37] of 0.285 µM. The TGI [37] was 2.96 µM, the GI50 [38] was 1.61 µM and the TGI [38] was 3.01 µM. For the same molecule, the GI50 [39] was 0.519 µM, the TGI [39] was 1.91 µM and the GI50 [40] was 1.19 µM. The TGI [40] was > 100 µM, the GI50 [41] was 0.954 µM and the TGI [41] was 5.12 µM. For the same molecule, the GI50 [42] was 2.53 µM, the TGI [42] was > 100 µM and the GI50 [43] was 1.67 µM. It also gave a TGI [43] of 3.44 µM, a GI50 [44] of 1.63 µM and a TGI [44] of 4.28 µM. It also gave a GI50 [45] of 2.37 µM, a TGI [45] of 4.79 µM and a GI50 [46] of 1.06 µM. For the same molecule, the TGI [46] was 4.89 µM, the GI50 [47] was 2.35 µM and the TGI [47] was 6.44 µM. For the same molecule, the GI50 [48] was 1.1 µM, the TGI [48] was 2.55 µM and the GI50 [49] was 2.25 µM. For the same molecule, the TGI [49] was 4.35 µM, the GI50 [50] was 1.82 µM and the TGI [50] was 5.31 µM. The GI50 [51] was 0.932 µM, the TGI [51] was 3.49 µM and the GI50 [52] was 5.07 µM. For the same molecule, the TGI [52] was 16.7 µM, the GI50 [53] was 3.26 µM and the TGI [53] was 64.2 µM. For the same molecule, the GI50 [54] was 0.648 µM, the TGI [54] was 2.24 µM and the GI50 [55] was 2.05 µM. It also gave a TGI [55] of 3.95 µM, a GI50 [56] of 0.716 µM and a TGI [56] of 2.79 µM.
CC(C)(c1ccccc1)c1cc(O)c(C(C)(C)c2ccccc2)cc1O gave a GI50 [1] of 1.96 µM, a TGI [1] of 10.8 µM and a GI50 [57] of 2.77 µM. For the same molecule, the TGI [57] was 14.6 µM, the GI50 [2] was 3.19 µM and the TGI [2] was 19.6 µM. It also gave a GI50 [3] of 1.81 µM, a TGI [3] of 12.7 µM and a GI50 [4] of 1.37 µM. The TGI [4] was 14.3 µM, the GI50 [5] was 1.02 µM and the TGI [5] was 2.65 µM. For the same molecule, the GI50 [6] was 1.72 µM, the TGI [6] was 7.82 µM and the GI50 [7] was 1.66 µM. It also gave a TGI [7] of 3.4 µM, a GI50 [8] of 2.73 µM and a TGI [8] of 9.59 µM. For the same molecule, the GI50 [9] was 2.67 µM, the TGI [9] was 9.38 µM and the GI50 [10] was 3.75 µM. The TGI [10] was 20.9 µM, the GI50 [11] was 2.23 µM and the TGI [11] was 7.53 µM. The GI50 [12] was 1.84 µM, the TGI [12] was 5.53 µM and the GI50 [13] was 1.26 µM. It also gave a TGI [13] of 9.92 µM, a GI50 [14] of 2.7 µM and a TGI [14] of 13.3 µM. The GI50 [15] was 1.33 µM, the TGI [15] was 3.23 µM and the GI50 [16] was 2.7 µM. The TGI [16] was 12.1 µM, the GI50 [17] was 1.83 µM and the TGI [17] was 6.85 µM. It also gave a GI50 [18] of 2.35 µM, a TGI [18] of 10.1 µM and a GI50 [19] of 1.94 µM. It also gave a TGI [19] of 12.5 µM, a GI50 [20] of 2.99 µM and a TGI [20] of 12.8 µM. For the same molecule, the GI50 [21] was 1.82 µM, the TGI [21] was 4.99 µM and the GI50 [22] was 3.83 µM. The TGI [22] was 16.2 µM, the GI50 [23] was 2.98 µM and the TGI [23] was 12.8 µM. It also gave a GI50 [24] of 2.46 µM, a TGI [24] of 11.5 µM and a GI50 [25] of 3.55 µM. The TGI [25] was 14.5 µM, the GI50 [26] was 1.75 µM and the TGI [26] was 6.66 µM. For the same molecule, the GI50 [27] was 3.67 µM, the TGI [27] was 16.7 µM and the GI50 [28] was 2.1 µM. It also gave a TGI [28] of 11.2 µM, a GI50 [29] of 1.71 µM and a TGI [29] of 4.93 µM. For the same molecule, the GI50 [30] was 2.14 µM, the TGI [30] was 9.97 µM and the GI50 [31] was 2.16 µM. For the same molecule, the TGI [31] was 10.1 µM, the GI50 [32] was 1.35 µM and the TGI [32] was 3.36 µM. The GI50 [33] was 1.96 µM, the TGI [33] was 10.9 µM and the GI50 [34] was 1.71 µM. It also gave a TGI [34] of 11.4 µM, a GI50 [58] of 3.06 µM and a TGI [58] of 13.4 µM. It also gave a GI50 [35] of 2.1 µM, a TGI [35] of 11.3 µM and a GI50 [36] of 2.96 µM. The TGI [36] was 13.9 µM, the GI50 [37] was 1.51 µM and the TGI [37] was 11.5 µM. For the same molecule, the GI50 [38] was 1.43 µM, the TGI [38] was 8.85 µM and the GI50 [39] was 2.7 µM. It also gave a TGI [39] of 12.2 µM, a GI50 [40] of 1.85 µM and a TGI [40] of 12.2 µM. It also gave a GI50 [42] of 3 µM, a TGI [42] of 13.6 µM and a GI50 [43] of 1.64 µM. For the same molecule, the TGI [43] was 8.91 µM, the GI50 [44] was 2.27 µM and the TGI [44] was 16.2 µM. It also gave a GI50 [45] of 2.81 µM, a TGI [45] of 14 µM and a GI50 [46] of 2.77 µM. It also gave a TGI [46] of 13.4 µM, a GI50 [47] of 2.32 µM and a TGI [47] of 12.3 µM. The GI50 [48] was 1.54 µM, the TGI [48] was 3.82 µM and the GI50 [49] was 2.63 µM. For the same molecule, the TGI [49] was 8.58 µM, the GI50 [50] was 1.43 µM and the TGI [50] was 6.28 µM. For the same molecule, the GI50 [51] was 1.09 µM, the TGI [51] was 16 µM and the GI50 [52] was 2.91 µM. It also gave a TGI [52] of 12.1 µM, a GI50 [53] of 3 µM and a TGI [53] of 9.86 µM. For the same molecule, the GI50 [54] was 2.53 µM, the TGI [54] was 8 µM and the GI50 [55] was 2.1 µM. The TGI [55] was 10.7 µM, the GI50 [56] was 1.57 µM and the TGI [56] was 5.31 µM.
